Results reported in ChEMBL document CHEMBL4184274 (Bioorg Med Chem Lett, 2018).

Assay: in vivo
Details: rat, 5 mg/kg

Work on `CCN1CCN(Cc2ccc(Nc3ncc(F)c(-c4cc(F)c5nc(C)n(C(C)C)c5c4)n3)nc2)CC1` [ABEMACICLIB] yielded an AUC of 3280 ng·h/mL.
